In paper PMC9530963, “A cathelicidin antimicrobial peptide from Hydrophis cyanocinctus inhibits Zika virus infection by downregulating expression of a viral entry factor” (The Journal of Biological Chemistry, 2022):

Tests used:
ZIKV = experiment: Susceptibility of Vero cells to ZIKV (peptide pretreatment of cells); type: cell-based, ZIKV strain PRVABC59; settings: 2.5 μM, Vero cells incubated 2 h with peptide before ZIKV (MOI = 1), 48 h
Description: Figure 2 Hc-CATH decreases the susceptibility of Vero cells to ZIKV.A, schematic diagram of B–G (Hc-CATH-Vero-pre). B–G, pretreatment with Hc-CATH before ZIKV infection decreases the susceptibility of Vero cells to ZIKV. Vero cells were seeded in 24-well plates (5 × 10^4 cells/well) and cultured in DMEM containing 2% FBS. Hc-CATH (2.5 μM), AC5 (2.5 μM), LL-37 (2.5 μM), or same volume of PBS (peptide solvent) was added to cells and incubated at 37 °C for 2 h. Vero cells were washed three times with PBS, and ZIKV (MOI = 1) was added to cells. After incubation at 37 °C for 2 h, Vero cells were washed with PBS and transferred with fresh DMEM containing 2% FBS. After culture for 48 h, intracellular ZIKV RNA (B), NS3 protein (C and D, C: immunoblots, D: ratio analyzed by ImageJ), E protein (E, the scale bar represents 50 μm), and extracellular ZIKV titer (F and G) was tested by qPCR, Western blot, immunofluorescence staining, and plaque-forming assay, respectively.
Vero, A549, or U251 cells were incubated with peptide or PBS at 37 °C for 2 h. The cells were washed three times with PBS and incubated with ZIKV (MOI = 1) at 37 °C for 2 h. The culture media were replaced with fresh DMEM containing 2% FBS. After incubation at 37 °C for 48 h, intracellular ZIKV RNA, NS3 protein, E protein, and extracellular ZIKV titer were detected by qPCR, WB, IF, and plaque-forming assay, respectively ([28]).

type I IFN signaling = experiment: Type I IFN signaling in U251 cells (qPCR, Western blot); type: cell-based, Homo sapiens
Description: Figure 7 Hc-CATH-induced AXL downregulation reverses the negative regulation of AXL on type I IFN signaling.A, schematic diagram of B and C. B, effect of Hc-CATH on type I IFN signaling. U251 cells were cultured in the presence of Hc-CATH (2.5 μM) or same volume of PBS (solvent of peptide). After culture at 37 °C for 24 h, type I IFN genes were tested by qPCR. C, effect of Hc-CATH on type I IFN signaling upon ZIKV challenge. U251 cells were cultured in the presence of Hc-CATH (2.5 μM) or PBS (solvent of peptide) at 37 °C for 2 h. Cells were washed with PBS and incubated with ZIKV (MOI = 1) at 37 °C for 2 h. Cell were washed with PBS again and cultured in DMEM containing 2% FBS at 37 °C for 24 h. Type I IFN genes were tested by qPCR. D, schematic diagram of E–G. E and F, U251 cells were cultured in the presence of Hc-CATH (2.5 μM) or PBS (solvent of peptide) at 37 °C for 12 h. Cells were stimulated with SeV (MOI = 1) at 37 °C for 12 h. Type I IFN gene was tested by qPCR (E). […] DMEM, Dulbecco’s modified Eagle’s medium; FBS, fetal bovine serum; IFN, interferon; MOI, multiplicity of infection; qPCR, quantitative PCR; SeV, Sendai virus; ZIKV, Zika virus.
U251 cells were cultured with Hc-CATH (2.5 μM) or PBS at 37 °C for 24 h, and cells were collected for testing type I IFN signaling gene and protein by qPCR and WB, respectively. Upon ZIKV challenge, U251 cells were incubated with Hc-CATH (2.5 μM) or PBS at 37 °C for 2 h and washed three times with PBS. Cells were then incubated with ZIKV (MOI = 1) for 2 h and washed with PBS. After culture for 24 h, type I IFN signaling genes were tested by qPCR. Upon SeV challenge, U251 cells were incubated with Hc-CATH (2.5 μM) or PBS at 37 °C for 12 h, cells were then stimulated with SeV or same volume of PBS for 12 h, and type I IFN signaling gene and protein were tested by qPCR and WB, respectively.

KFFKRLLKSVRRAVKKFRKKPRLIGLSTLL [Hc-CATH, cathelicidin antimicrobial peptide identified from the sea snake Hydrophis cyanocinctus]
reduction of ZIKV NS3 protein, cells pre-incubated with peptide (ZIKV; Western blot): ~50.1%
reduction of ZIKV particles, cells pre-incubated with peptide (ZIKV; plaque-forming assay): ~62.2%
reduction of ZIKV RNA, cells pre-incubated with peptide (ZIKV; qPCR): about 46.1%
levels of type I IFN genes in response to ZIKV infection (type I IFN signaling; 2.5 μM 2 h, then ZIKV MOI = 1, 24 h, qPCR): upregulated the levels of type I IFN genes
IFN-β expression in response to SeV stimulation (type I IFN signaling; 2.5 μM 12 h, then SeV MOI = 1 12 h, qPCR, compared with PBS): significantly increased IFN-β expression
levels of type I IFN genes (type I IFN signaling; 2.5 μM, 24 h, qPCR): significantly increased the levels of type I IFN genes
phosphorylation of TANK-binding kinase 1 and IRF3 (type I IFN signaling; 2.5 μM, Western blot, relative to PBS): increased the phosphorylation of TANK-binding kinase 1 and IRF3
